US9375459B2, “Cyclic peptides with an anti-neoplasic and anti-angiogenic activity” (priority 2011, dated 2016)
“Also recorded” adds a separate entry of the source. Like-named read-outs stand apart in the source and are kept apart here. Where a SMILES comes first, the peptide text is derived from it. Bridges are numbered along the chain shown (N, C = ends).

Assays:
[1] = tested on: Ls174T (colon adenocarcinoma); assay: SRB cytotoxicity on Ls174T cells; type: cell-based, human
Experimental: (§1) Negative control cells were cultured on a volume of vehicle equal to that of the experimental samples. An “x-y” curve (dose-response) was established with the percent of surviving cells, compared in respect to the negative control cells, and the following parameters were estimated: 50% growth inhibition (GI50); Total growth inhibition (TGI); and the lethal concentration 50 (LC50), that is the concentration causing the 50% of cell death (Boyd M R, Paull K D, and Rubinstein L R (1992) “Data display and analysis strategies for the NCI Disease Oriented In-Vitro Antitumor Drug Screen, in Cytotoxic Anticancer Drugs: Models and Concept for Drug Discovery and Development” (Baleriote F A, Corbett T H and Baker L H eds) pp 11-34, Kluwer Academia Publishers, Boston).
(§2) Were considered as cytotoxic peptides all those peptides being able of inhibiting 50% of the cellular proliferation, in a dose-dependent manner, and showing GI50 values below 100 μM, at least in one of the cell lines studied. The human tumor cell lines used were: HEp-2 (larynx carcinoma), A549 (lung epithelial adenocarcinoma), M14 (melanoma), Colo 205 (colon adenocarcinoma), Ls174T (colon adenocarcinoma), LnCAP (prostate carcinoma), PC-3 (prostate carcinoma) and H 125 (non-small cell lung adenocarcinoma). […]

human tumor cells = assay: Cytotoxic activity screening of peptide library on human tumor cell lines, SRB method; type: cell-based
Experimental: as §1
(§3) Were considered as cytotoxic peptides all those peptides being able of inhibiting 50% of the cellular proliferation, in a dose-dependent manner, and showing GI50 values below 100 μM, at least in one of the cell lines studied. The human tumor cell lines used were: HEp-2 (larynx carcinoma), A549 (lung epithelial adenocarcinoma), M14 (melanoma), Colo 205 (colon adenocarcinoma), Ls174T (colon adenocarcinoma), LnCAP (prostate carcinoma), PC-3 (prostate carcinoma) and H 125 (non-small cell lung adenocarcinoma). Represented are primary sequences for the designed peptides, the code used for its generation and their respective cytotoxic capacity on human tumor cells.

[2] = tested on: A549 (lung epithelial adenocarcinoma); assay: SRB cytotoxicity on A549 cells; type: cell-based, human
Experimental: as §1, §2

HEp-2 (larynx carcinoma) = assay: SRB cytotoxicity on HEp-2 cells; type: cell-based, human
Experimental: as §1, §2

[3] = tested on: Colo 205 (colon adenocarcinoma); assay: SRB cytotoxicity on Colo 205 cells; type: cell-based, human
Experimental: as §1, §2

[4] = tested on: human tumor cell lines (A549, A375, PC-3, U87)
TC-1 tumor = assay: TC-1 subcutaneous tumor model in C57BL/6 mice; type: in vivo; conditions: 80 μM; for survival: intratumoral route
Experimental: Six-to-eight weeks-old, C57BL/6 female mice of 22 g of weight were supplied by the National Center for Laboratory Animal Production (CENPALAB, Havana, Cuba) and housed under pathogen-free conditions at the Bioterium of the Center for Genetic Engineering and Biotechnology (CIGB). Experiments were carried out in agreement with regulations for proper handling and care of laboratory animals. Tumor volume was measured on each case (estimated by the formula: volume=a^2×(b/2), where a is the width and b is the length of the tumor) and animal survival was evaluated.
Survival was compared between groups by the Logrank test. The statistic parameters were obtained with the aid of the GraphPad Prism 4.0 software (GraphPad Software, San Diego, Calif., USA).
C57BL/6 mice were injected in the right flank by subcutaneous route (s.c.) with 50 000 TC-1 cells. When tumors were detectable, mice were randomized into treatment groups to evaluate the treatment with the peptides subject of study, to evaluate them by different administration routes. Tumor-bearing animals received 6 administrations in alternate days, with 80 μM of the subject peptide, solely received the vehicle as control. Five mice were used for each group. Animals were housed under pathogen-free conditions, and procedures were conducted in agreement with good practices for laboratory animal handling and care.

M14 (melanoma) = assay: SRB cytotoxicity on M14 melanoma cells; type: cell-based; conditions: M14 human melanoma cells
Experimental: as §1, §3
The inability of peptide N06P89 (cyclized by two cysteins located at both N- and C-termini) to inhibit cellular proliferation in M14 human melanoma tumor cells is shown in FIG. 7. […] At the same FIG. 7, it is also shown the need for blocking the C-terminus (for example, an amide group or other modification) to achieve the cytotoxic capacity expected for the peptide region of interest.

[5] = tested on: human colon cancer Ls174T cell line implanted in NIH athymic mice; assay: Ls174T colon cancer tumor model in athymic mice; type: in vivo; conditions: FIG. 19B
Experimental: The Ls174T colon cancer tumor model in athymic mice was used to evaluate the potential effect of the linear Gly255-Ser274 segment (peptide N06P87), compared to the CIGB370r polypeptide, on human tumor models. Human tumor cells were administered by subcutaneous route, and the molecules of interest or the vehicle were administered by intratumor route (100 μL). After 13 days, when tumors were implanted and palpable, administration schedules started for the molecules of interest (FIG. 8A). The peptide N06P87 was administered in down-scaled doses: two administrations of 600 μM each every 48 h, followed by 4 administrations of 330 μM each every 48 h, and lastly 4 administrations of 90 μM each every 72 h. The CIGB370r peptide was administered weekly for 4 weeks.
The effects of the linear segment Gly255-Ser274 (peptide N06P87) and two other model cyclic peptides of the present invention were compared to the effect of the CIGB370r polypeptide in the Ls174T human colon cancer model in athymic NIH mice, with the dose and schedule shown in FIG. 19. After 13 days, once the tumors were implanted and palpable, biomolecules began to be administered (FIG. 19 A). The peptides were administered in down-scaled doses: 2 administrations of 600 μM every 48 h, followed by 4 administrations of 330 μM each every 48 h, and 4 final 90 μM administrations every 72 h. […]

[6] = peptide combined with prodigiosin

SMILES: CC(C)C[C@H](NC(=O)[C@H](Cc1ccccc1)NC(=O)[C@H](CC(=O)O)NC(=O)[C@H](CCCNC(=N)N)NC(=O)CNC(=O)[C@@H](NC(=O)[C@H](CC(N)=O)NC(=O)[C@H](CO)NC(=O)[C@H](CC(N)=O)NC(=O)[C@H](Cc1ccccc1)NC(=O)CNC(=O)[C@H](Cc1ccc(O)cc1)NC(=O)[C@@H](NC(=O)[C@@H](NC(=O)[C@H](CC(=O)O)NC(=O)CN)[C@@H](C)O)C(C)C)[C@@H](C)O)C(=O)N[C@@H](CO)C(=O)N[C@H](C(=O)N[C@H](C(=O)N[C@@H](CO)C(N)=O)[C@@H](C)O)[C@@H](C)O [Peptide N06P87] (H-GDTVYGFNSNTGRDFLSTTS-NH2)
- GI50 [1]: < 100 µM
- cytotoxic / biological activity in vitro on tumor cells (human tumor cells; peptide library screening): active
- change of cytotoxic activity by parenteral formulation buffers, pH and additives (human tumor cells; tumor cells from diverse histological origins): no increased on its cytotoxic activity
- GI50 [2]: < 100 µM
- GI50 (HEp-2 (larynx carcinoma)): < 100 µM
- GI50 [3]: < 100 µM

SMILES: CC(C)[C@H](NC(=O)[C@@H](NC(=O)[C@H](CC(=O)O)NC(=O)CN)[C@@H](C)O)C(=O)N[C@H]1CSSC[C@@H](C(=O)N[C@@H](CO)C(=O)N[C@H](C(=O)N[C@H](C(=O)N[C@@H](CO)C(N)=O)[C@@H](C)O)[C@@H](C)O)NC(=O)[C@H](Cc2ccccc2)NC(=O)[C@H](CC(=O)O)NC(=O)[C@H](CCCNC(=N)N)NC(=O)CNC(=O)[C@H]([C@@H](C)O)NC(=O)[C@H](CC(N)=O)NC(=O)[C@H](CO)NC(=O)[C@H](CC(N)=O)NC(=O)[C@H](Cc2ccccc2)NC(=O)CNC1=O [Peptide J08P46s-s] (H-GDTVCGFNSNTGRDFCSTTS-NH2; disulfide 5-16)
- decrease of the cytotoxic activity of prodigiosin on primary fibroblasts (primary fibroblasts; [6]): at least one order of magnitude
- GI50 values [4, 6]: nm range
- effect on the cytotoxic activity of prodigiosin [4, 6]: enhanced
- survival (TC-1 tumor): intermediate survival block

SMILES: CC[C@H](C)[C@H](NC(=O)[C@H](CC(N)=O)NC(=O)[C@@H](NC(=O)[C@H](CO)NC(=O)[C@H](CC(C)C)NC(=O)[C@H](CC(=O)O)NC(=O)[C@@H](NC(=O)[C@@H](NC(=O)[C@H](CC(N)=O)NC(=O)[C@H](CO)NC(=O)[C@H](CO)NC(=O)[C@H](C)NC(=O)[C@@H](N)CC(N)=O)C(C)C)[C@@H](C)O)C(C)C)C(=O)NCC(=O)NCC(=O)N[C@@H](Cc1c[nH]cn1)C(=O)N[C@@H](CCC(N)=O)C(=O)N[C@@H](C)C(=O)N1CCC[C@H]1C(=O)N[C@@H](CC(=O)O)C(N)=O [Peptide E02P04] (H-NASSNVTDLSVNIGGHQAPD-NH2)
- Cytotoxic activity in vitro (human tumor cells; SRB method, cytotoxic = dose-dependent 50% inhibition of proliferation, GI50 below 100 μM in at least one cell line): + (Symbol + indicates the presence of cytotoxicity)
- cytotoxic activity / inhibition of cellular proliferation (M14 (melanoma)): showed activity
- cytotoxic activity / inhibition of cellular proliferation (M14 (melanoma); listed as E07P04): showed cytotoxic activity

SMILES: CC(C)C[C@@H]1NC(=O)[C@H](Cc2ccccc2)NC(=O)[C@H](CC(=O)O)NC(=O)[C@H](CCCNC(=N)N)NC(=O)CNC(=O)[C@H]([C@@H](C)O)NC(=O)[C@H](CC(N)=O)NC(=O)[C@@H](NC(=O)[C@H](CC(N)=O)NC(=O)[C@H](Cc2ccccc2)NC(=O)CNC(=O)[C@H](Cc2ccc(O)cc2)NC(=O)[C@@H](NC(=O)[C@@H](NC(=O)[C@H](CC(=O)O)NC(=O)CN)[C@@H](C)O)C(C)C)CSSC[C@@H](C(=O)N[C@H](C(=O)N[C@H](C(=O)N[C@@H](CO)C(N)=O)[C@@H](C)O)[C@@H](C)O)NC1=O [Peptide A08P28s-s] (H-GDTVYGFNCNTGRDFLCTTS-NH2; disulfide 9-17)
- decrease of the cytotoxic activity of prodigiosin on primary fibroblasts (primary fibroblasts; [6]): at least one order of magnitude
- GI50 values [4, 6]: nm range
- effect on the cytotoxic activity of prodigiosin [4, 6]: enhanced
- survival (TC-1 tumor): intermediate survival block

SMILES: CC(C)C[C@@H]1NC(=O)[C@H](Cc2ccccc2)NC(=O)[C@H](CC(=O)O)NC(=O)[C@H](CCCNC(=N)N)NC(=O)CNC(=O)[C@H]([C@@H](C)O)NC(=O)[C@H](CC(N)=O)NC(=O)[C@H](CO)NC(=O)[C@H](CC(N)=O)NC(=O)[C@H](Cc2ccccc2)NC(=O)CNC(=O)[C@H](Cc2ccc(O)cc2)NC(=O)[C@H](C(C)C)NC(=O)[C@H]([C@@H](C)O)NC(=O)[C@H](CC(=O)O)NC(=O)CNC(=O)[C@@H](N)CSSC[C@@H](C(N)=O)NC(=O)[C@H](CO)NC(=O)[C@H]([C@@H](C)O)NC(=O)[C@H]([C@@H](C)O)NC(=O)[C@H](CO)NC1=O [Peptide N06P89] (H-CGDTVYGFNSNTGRDFLSTTSC-NH2; disulfide 1-22)
- cytotoxic activity / inhibition of cellular proliferation (M14 (melanoma)): inability; also recorded: loss of peptide's biological activity

SMILES: CC(C)C[C@@H]1NC(=O)[C@H](Cc2ccccc2)NC(=O)[C@H](CC(=O)O)NC(=O)[C@H](CCCNC(=N)N)NC(=O)CNC(=O)[C@H]([C@@H](C)O)NC(=O)[C@H](CC(N)=O)NC(=O)[C@H](CO)NC(=O)[C@H](CC(N)=O)NC(=O)[C@@H](NC(=O)CNC(=O)[C@H](Cc2ccc(O)cc2)NC(=O)[C@@H](NC(=O)[C@@H](NC(=O)[C@H](CC(=O)O)NC(=O)CN)[C@@H](C)O)C(C)C)CSSC[C@@H](C(N)=O)NC(=O)CNC(=O)[C@H]([C@@H](C)O)NC(=O)[C@H](CO)NC1=O [Peptide J08P48s-s] (H-GDTVYGCNSNTGRDFLSTGC-NH2; disulfide 7-20)
- decrease of the cytotoxic activity of prodigiosin on primary fibroblasts (primary fibroblasts; [6]): at least one order of magnitude
- GI50 values [4, 6]: nm range
- effect on the cytotoxic activity of prodigiosin [4, 6]: enhanced
- survival by intratumoral and intraperitoneal routes (TC-1 tumor; i.t. or i.p., FIG. 17): reproduce the effects observed in this model for the CIGB370r polypeptide
- survival (TC-1 tumor): highest survival block
- T/C values related to the mean tumor volume [5]: 35%

SMILES: CC(C)C[C@@H]1NC(=O)[C@H](Cc2ccccc2)NC(=O)[C@H](CC(=O)O)NC(=O)[C@H](CCCNC(=N)N)NC(=O)CNC(=O)[C@H]([C@@H](C)O)NC(=O)[C@H](CC(N)=O)NC(=O)[C@@H](N)CSSC[C@@H](C(N)=O)NC1=O [Peptide A08P25s-s, CNTGRDFLC] (H-CNTGRDFLC-NH2; disulfide 1-9)
- decrease of the cytotoxic activity of prodigiosin on primary fibroblasts (primary fibroblasts): at least one order of magnitude
- effect on the cytotoxic activity of prodigiosin [4]: enhanced
- GI50 values [4, 6]: nm range
- survival (TC-1 tumor): intermediate survival block
- T/C values related to the mean tumor volume [5]: 35%
